Experimental data reported in DBAASP.
Values after ≈ are worked out from the molar mass of the structure shown. Values joined by “and” are separate entries in the source; they are usually repeats but may differ in a detail not shown here. Equal values may be shown once.

Columns and labels:
Test in all cases: ≥ marks a high value that may be exact or a test limit, other limits are often not marked, values filed in µg/mL are converted to µM
[1] = tested on: Candida albicans CCARM 14020
[2] = tested on: Candida albicans CCARM 14022
Candida albicans SC5314 = tested on: Candida albicans SC5314
[3] = tested on: Malassezia sympodialis ATCC 42132
[4] = tested on: Acinetobacter baumannii ATCC 17978
Bacillus subtilis C626 = tested on: Bacillus subtilis C626
[5] = tested on: Candida albicans ATCC 64550
[6] = tested on: Enterobacter cloacae 218R
[7] = tested on: Enterococcus faecalis ATCC 29212
[8] = tested on: Enterococcus faecalis W61950
[9] = tested on: Enterococcus faecalis f43559
[10] = tested on: Enterococcus faecium mic80
[11] = tested on: Enterococcus faecium t62764
[12] = tested on: Escherichia coli ESBL 63103
[13] = tested on: Escherichia coli ESBL 64771
Escherichia coli O157:H7 = tested on: Escherichia coli O157:H7
[14] = tested on: Klebsiella pneumoniae ESBL 61962
[15] = tested on: Klebsiella pneumoniae ESBL 63575
[16] = tested on: Pseudomonas aeruginosa 198
[17] = tested on: Pseudomonas aeruginosa 213
Pseudomonas aeruginosa 9 = tested on: Pseudomonas aeruginosa 9
[18] = tested on: Pseudomonas aeruginosa H1001
[19] = tested on: Pseudomonas aeruginosa H1027
[20] = tested on: Pseudomonas aeruginosa H1030
[21] = tested on: Pseudomonas aeruginosa LES400
[22] = tested on: Pseudomonas aeruginosa PAO1 H103
[23] = tested on: Staphylococcus aureus ATCC 25923
[24] = tested on: Staphylococcus aureus C622
[25] = tested on: Staphylococcus aureus C623
[26] = tested on: Stenotrophomonas maltophilia ATCC 13637
[27] = tested on: Achromobacter xylosoxidans
Candida albicans = tested on: Candida albicans
Escherichia coli UB1005 = tested on: Escherichia coli UB1005
[28] = tested on: Pseudomonas aeruginosa M1251
[29] = tested on: Pseudomonas aeruginosa M1426
[30] = tested on: Pseudomonas aeruginosa M76
[31] = tested on: Pseudomonas aeruginosa M917
[32] = tested on: Pseudomonas aeruginosa PAO1
[33] = tested on: Pseudomonas aeruginosa R70
Pseudomonas aeruginosa = tested on: Pseudomonas aeruginosa
Pseudomonas fluorescens = tested on: Pseudomonas fluorescens
Ralstonia pickettii = tested on: Ralstonia pickettii
[34] = tested on: Salmonella enterica serovar Typhimurium
Staphylococcus aureus = tested on: Staphylococcus aureus
[35] = tested on: Stenotrophomonas maltophilia
[36] = tested on: Bacillus subtilis KCCM 11495
[37] = tested on: Enterococcus faecium CCARM 5028
[38] = tested on: Enterococcus faecium CCARM 5029
[39] = tested on: Escherichia coli KCCM 11569

For C[C@H](NC(=O)[C@H](Cc1cnc[nH]1)NC(=O)[C@H](CO)NC(=O)[C@@H](N)CC(=O)O)C(=O)N[C@@H](CCCCN)C(=O)N[C@@H](CCCN=C(N)N)C(=O)N[C@@H](Cc1cnc[nH]1)C(=O)N[C@@H](Cc1cnc[nH]1)C(=O)NCC(=O)N[C@@H](Cc1ccc(O)cc1)C(=O)N[C@@H](CCCCN)C(=O)N[C@@H](CCCN=C(N)N)C(=O)N[C@@H](CCCCN)C(=O)N[C@@H](Cc1ccccc1)C(=O)N[C@@H](Cc1cnc[nH]1)C(=O)N[C@@H](CCC(=O)O)C(=O)N[C@@H](CCCCN)C(=O)N[C@@H](Cc1cnc[nH]1)C(=O)N[C@@H](Cc1cnc[nH]1)C(=O)N[C@@H](CO)C(=O)N[C@@H](Cc1cnc[nH]1)C(=O)N[C@@H](CCCN=C(N)N)C(=O)NCC(=O)N[C@@H](Cc1ccc(O)cc1)C(N)=O [DSHAKRHHGYKRKFHEKHHSHRGY], the MIC [1] was 3.73 µM and 10.5 µM, the MIC [2] was 3.73 µM and 10.5 µM and the MIC (Candida albicans SC5314) was 3.73 µM and 10.5 µM. It also gave an MIC [3] of 5.01 µM (≈ 15.2 µg/mL).

Compound CC[C@H](C)[C@H](NC(=O)[C@H](Cc1c[nH]c2ccccc12)NC(=O)[C@H](CCCCN)NC(=O)[C@H](Cc1c[nH]c2ccccc12)NC(=O)[C@H](Cc1c[nH]c2ccccc12)NC(=O)[C@H](CCCNC(=N)N)NC(=O)[C@@H](N)CCCCN)C(=O)N[C@@H](CCCNC(=N)N)C(=O)N[C@@H](Cc1c[nH]c2ccccc12)C(=O)O [KRWWKWIRW] has an MIC [4] of 5 µM (≈ 7.22 µg/mL), an MIC (Bacillus subtilis C626) of 20 µM (≈ 28.9 µg/mL) and an MIC [5] of at least 100 µM. The MIC [6] was 3 µM (≈ 4.33 µg/mL), the MIC [7] was 12 µM (≈ 17.3 µg/mL) and the MIC [8] was at least 99 µM. It also gave an MIC [9] of at least 49 µM, an MIC [10] of 3.1 µM (≈ 4.48 µg/mL) and an MIC [11] of 1.5 µM (≈ 2.17 µg/mL). It also gave an MIC [12] of 1.5 µM (≈ 2.17 µg/mL), an MIC [13] of 1.5 µM (≈ 2.17 µg/mL) and an MIC (Escherichia coli O157:H7) of 1.25 µM (≈ 1.81 µg/mL). For the same compound, the MIC [14] was 25 µM (≈ 36.1 µg/mL), the MIC [15] was 6.2 µM (≈ 8.96 µg/mL) and the MIC [16] was 1.5 µM (≈ 2.17 µg/mL). It also gave an MIC [17] of 3 µM (≈ 4.33 µg/mL), an MIC (Pseudomonas aeruginosa 9) of 5.9 µM (≈ 8.52 µg/mL) and an MIC [18] of 0.554 µM (≈ 0.8 µg/mL). The MIC [19] was 0.8 µM (≈ 1.16 µg/mL), the MIC [20] was 3 µM (≈ 4.33 µg/mL) and the MIC [21] was 5.9 µM (≈ 8.52 µg/mL). For the same compound, the MIC [22] was 0.8 µM (≈ 1.16 µg/mL), the MIC [23] was 3 µM (≈ 4.33 µg/mL) and the MIC [24] was 5 µM (≈ 7.22 µg/mL). The MIC [25] was 1.5 µM (≈ 2.17 µg/mL) and the MIC [26] was 0.4 µM (≈ 0.578 µg/mL).

In the case of CC(C)C[C@H](NC(=O)[C@H](CC(C)C)NC(=O)[C@H](CCCCN)NC(=O)[C@H](C)NC(=O)[C@H](CC(C)C)NC(=O)[C@H](CCCCN)NC(=O)[C@H](CCCCN)NC(=O)[C@H](CC(C)C)NC(=O)[C@H](C)NC(=O)[C@H](CCCCN)NC(=O)[C@H](CCCCN)NC(=O)[C@H](Cc1ccc(O)cc1)NC(=O)[C@@H](N)CCCCN)C(N)=O [KYKKALKKLAKLL], the MIC [27] is reported as 5.18 µM (≈ 8 µg/mL), the MIC (Candida albicans) is reported as 5.18 µM (≈ 8 µg/mL) and the MIC (Escherichia coli UB1005) is reported as 2.59 µM (≈ 4 µg/mL). The MIC [28] was 1.29 µM (≈ 2 µg/mL), the MIC [29] was 10.4 µM (≈ 16 µg/mL) and the MIC [30] was 2.59 µM (≈ 4 µg/mL). For the same compound, the MIC [31] was 10.4 µM (≈ 16 µg/mL), the MIC [32] was 2.59 µM (≈ 4 µg/mL) and the MIC [33] was 1.29 µM (≈ 2 µg/mL). It also gave an MIC (Pseudomonas aeruginosa) of 5.18 µM (≈ 8 µg/mL), an MIC (Pseudomonas fluorescens) of 5.18 µM (≈ 8 µg/mL) and an MIC (Ralstonia pickettii) of 2.59 µM (≈ 4 µg/mL). The MIC [34] was 2.59 µM (≈ 4 µg/mL), the MIC (Staphylococcus aureus) was 10.4 µM (≈ 16 µg/mL) and the MIC [35] was 1.29 µM (≈ 2 µg/mL).

With CC(C)C[C@H](NC(=O)CNC(=O)[C@H](CCCCN)NC(=O)[C@H](CCCCN)NC(=O)[C@H](CC(C)C)NC(=O)[C@H](CC(C)C)NC(=O)[C@H](C)NC(=O)[C@H](CC(N)=O)NC(=O)[C@H](CC(C)C)NC(=O)[C@@H](N)Cc1c[nH]c2ccccc12)C(=O)N[C@@H](CC(N)=O)C(=O)N[C@@H](CS)C(=O)N[C@@H](C)C(=O)N[C@@H](CCCCN)C(=O)NCC(=O)N[C@H](C(=O)N[C@@H](CC(C)C)C(=O)N[C@@H](C)C(N)=O)C(C)C [WLNALLKKGLNCAKGVLA] the MIC [36] was 2.96 µM (≈ 5.65 µg/mL), the MIC [37] was 0.74 µM and 1.48 µM and the MIC [38] was 0.74 µM and 1.48 µM. For the same compound, the MIC [39] was 1.48 µM (≈ 2.83 µg/mL).
